# Test results published in patent publication US20080255137A1 (Arena Pharmaceuticals, Inc., priority 2004, published 2008).
# What was measured:
# human 5HT2C receptor = target: T1, human 5HT2C receptor (Homo sapiens, UniProt P28335); test: Intracellular IP3 (IP) accumulation assay, 5HT2C; type: cell-based; conditions: HEK293 cells transfected with human 5HT2C receptor cDNA
# T1 construct: expressed in transfected cells; host or cells: HEK293
# T1 sequence (P28335 33-458): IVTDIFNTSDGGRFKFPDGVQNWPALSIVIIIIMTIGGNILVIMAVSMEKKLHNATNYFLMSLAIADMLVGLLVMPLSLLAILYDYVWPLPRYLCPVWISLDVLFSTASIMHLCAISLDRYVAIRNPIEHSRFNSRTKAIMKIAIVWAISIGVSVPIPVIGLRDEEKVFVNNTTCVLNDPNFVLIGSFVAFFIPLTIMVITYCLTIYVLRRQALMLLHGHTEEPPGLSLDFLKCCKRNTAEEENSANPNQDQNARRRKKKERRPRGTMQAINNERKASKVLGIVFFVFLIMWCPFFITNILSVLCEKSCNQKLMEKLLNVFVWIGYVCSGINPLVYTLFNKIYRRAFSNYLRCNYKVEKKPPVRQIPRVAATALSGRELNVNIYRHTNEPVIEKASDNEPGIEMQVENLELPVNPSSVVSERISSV
# Procedure: HEK293 cells were transfected in 15 cm sterile dishes with or without (control) 16 ug of human 5HT2C receptor cDNA [for example see, Saltzman, A. G., et al. Biochem. Biophys. Res. Commun. 181, 1469-1478 (1991)] using 25 ul of lipofectamine. Cells were then incubated for 3-4 hours at 37° C./5% CO2 and then transfection media was removed and replaced with 100 ul of DMEM. Cells were then plated onto 100 cm sterile dishes. The next day cells were plated into 96 well PDL microtiter plates at a density of 55K/0.2 mL. Six hours latter, media was exchanged with [^3H]inositol (0.25 uCi/well) in inositol free DMEM and plates were incubated at 37° C./5% CO2 overnight. The next day, wells were aspirated and 200 ul of DMEM containing test compound, 10 uM pargyline, and 10 mM LiCl was added to appropriate wells. Plates were then incubated at 37° C./5% CO2 for three hours followed aspiration and by addition of fresh ice cold stop solution (1M KOH, 19 mM Na-borate, 3.8 mM EDTA) to each well. Plates were kept on ice for 5-10 min and the wells were neutralized by addition of 200 ul of fresh ice cold neutralization solution (7.5% HCl). Plates were then frozen until further processing is desired. The lysate was then transferred into 1.5 mL Eppendorf tubes and 1 mL of chloroform/methanol (1:2) was added/tube. […]
# 5HT2A receptor = 5HT2A receptor (Homo sapiens, UniProt P28223); test: EC50 against the 5HT2A receptor (selectivity); type: cell-based
# 5HT2B receptor = 5HT2B receptor (Homo sapiens, UniProt P41595); test: Activity against the 5HT2B receptor (selectivity); type: cell-based
# guinea pigs = conditions: repeat administration; cited from earlier work
# 5HT2B receptor, sequence (P41595 whole entry): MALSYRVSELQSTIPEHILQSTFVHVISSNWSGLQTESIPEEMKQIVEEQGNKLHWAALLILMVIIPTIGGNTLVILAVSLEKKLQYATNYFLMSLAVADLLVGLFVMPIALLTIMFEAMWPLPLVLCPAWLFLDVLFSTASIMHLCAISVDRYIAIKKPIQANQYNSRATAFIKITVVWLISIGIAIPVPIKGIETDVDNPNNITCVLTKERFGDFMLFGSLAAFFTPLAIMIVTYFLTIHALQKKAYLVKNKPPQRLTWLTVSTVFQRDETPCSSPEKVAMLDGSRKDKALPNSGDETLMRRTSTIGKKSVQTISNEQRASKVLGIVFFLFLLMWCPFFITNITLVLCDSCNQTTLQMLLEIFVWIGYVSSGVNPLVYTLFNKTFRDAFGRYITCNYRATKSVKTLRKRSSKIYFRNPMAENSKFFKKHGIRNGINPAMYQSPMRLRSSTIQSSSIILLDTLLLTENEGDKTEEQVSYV
# 5HT2A receptor, sequence (P28223 whole entry): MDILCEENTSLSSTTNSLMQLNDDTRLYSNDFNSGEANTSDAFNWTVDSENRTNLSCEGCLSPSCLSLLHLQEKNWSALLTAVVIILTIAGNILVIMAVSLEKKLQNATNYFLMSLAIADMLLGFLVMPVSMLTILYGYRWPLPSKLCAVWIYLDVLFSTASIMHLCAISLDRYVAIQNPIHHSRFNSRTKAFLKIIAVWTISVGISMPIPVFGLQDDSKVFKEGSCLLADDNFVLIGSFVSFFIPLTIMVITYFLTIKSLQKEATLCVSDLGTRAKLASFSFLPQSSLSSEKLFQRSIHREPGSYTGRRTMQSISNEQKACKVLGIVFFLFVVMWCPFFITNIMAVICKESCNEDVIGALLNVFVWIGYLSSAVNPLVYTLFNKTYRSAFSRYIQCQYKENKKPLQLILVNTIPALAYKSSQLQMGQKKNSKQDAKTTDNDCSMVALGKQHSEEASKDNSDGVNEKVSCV
Compound,EC50 (human 5HT2C receptor) [nM],EC50 (5HT2A receptor) [nM],activity against the 5HT2B receptor (5HT2B receptor),amyloid precursor protein (APPs) secretion (guinea pigs),levels of Aβ production in vivo (guinea pigs)
C[C@@H]1CNCCN1c1cc(F)cc(-c2ccsc2)c1 [Compound 1],2,,,,
"C[C@@H]1CNCCN1c1cccc(-c2ccccc2)c1F [Compound 10, (R)-1-(2-Fluoro-biphenyl-3-yl)-2-methyl-piperazine]",5,~1700,essentially inactive,,
"C[C@H](N)Cc1cccc(C(F)(F)F)c1 [DEXNOR, dexnorfenfluramine]",,,,stimulated,reducing
